Test results from patent publication US11439641B2, “Pyrimidine JAK inhibitors for the treatment of skin diseases” (THERAVANCE BIOPHARMA R&D IP, LLC, priority 2019, dated 2022).

Tests used:
Aqueous Solubility Assay = details: PBS buffer pH 7.4; maximum upper limit 1,000 μM
Caco-2 cell monolayer = experiment: Caco-2 Permeation Assay; assay type: in vitro ADME; details: Papp, 5 μM compound; for Cacoverap Kp 10^−6 cm/sec: A→B in the presence of 25 μM verapamil (P-gp inhibitor); for Caco Kp 10^−6 cm/sec: apical to basal (A→B)
In short: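 Compound at 5 μM, in duplicate, crosses Caco-2 monolayers apical to basal over 120 min at 37 °C. This is run with and without 25 μM verapamil to test for P-gp efflux. Samples are quantified by LC-MS/MS, and Papp in cm/sec is calculated as dQ/(dt × area × concentration).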

[1] = Human Liver Microsome Assay; details: human liver microsomes 0.1 mg/mL, 0.1 μM compound, 1 mM NADPH, 37° C.
Experimental: Assay 4: Human Liver Microsome Assay
The objective of this assay was to assess the metabolic stability of test compounds in an in vitro human liver sub-fraction. Human liver microsomes obtained from Bioreclamation-IVT (Baltimore, Md.) were thawed on ice and diluted into 0.1 M potassium phosphate buffer pH 7.4 to yield final incubation protein concentrations of 0.1 mg/mL. Test compounds (10 mM) were diluted into NADPH cofactor to yield final incubation concentrations of 0.1 μM test compound and 1 mM NADPH. Incubations were conducted at 37° C. temperature and test aliquots were taken at time points 0, 5, 8, 15, 30 and 45 minutes. Each aliquot was crashed into water with 3% formic acid and 1 μM internal standard. The resulting samples were injected onto an LC-MS/MS system for analysis.
For each incubation, the peak area of the analytes in each t0 aliquot was set to 100% and the peak areas from subsequent time point aliquots were converted to percentage of parent compound remaining relative to t0. The percentage of parent compound remaining was converted to natural log scale and plotted versus time in minutes. A linear regression analysis was performed for the initial decline of the parent disappearance profile and a formula for the best-fit line determined. The slope of the resultant line was normalized to protein concentration in mg/mL protein or number of cells/mL and CLint was calculated as follows for liver microsomes: CLint(μL·min^−1·mg^−1)=(Slope×1000)/[protein,mg/mL]
CLint values from 9-49 μl/min/mg represent moderate clearance (i.e. 30-70% of hepatic blood flow in human) and values >50 μl/min/mg represent high hepatic clearance (i.e. >70% of hepatic blood flow in human).

JAK3 = JAK3 (Homo sapiens (Human), UniProt P52333); experiment: Biochemical JAK and Tyk2 Kinase Assays (LanthaScreen), JAK3; details: 1.6 μM ATP (Km); pIC50 converted to pKi by Cheng-Prusoff
[2] = Solubility Assay in Organic Excipients; details: maximum upper limit 20,000 μM
Experimental: Assay 6: Solubility Assay in Organic Excipients
The purpose of this assay was to quantify the solubility of test compounds in different organic excipients such as diisopropyl adipate, medium chain triglycerides (MCT), propylene glycol, and polyethylene glycol. The assay required 80 μL of 100 mM DMSO test compound solution per desired excipient in addition to 40 μL required to make a test standard.
The standard was created by diluting 40 μL of 100 mM DMSO compound stock solution into 160 μL of methanol and was shaken for five minutes to ensure solution uniformity. […] This 20,000 μM solution was run on an Agilent 1260 LC-MS system by injecting 0.2 μL in order to obtain the peak area. For the test solutions, 80 μL of 100 mM DMSO compound stock solution, per excipient, were dried down into a powder overnight. Once in powder form, 400 μL of the desired excipient was added to the powder and allowed to shake vigorously for four hours. The maximum theoretical concentration for this sample solution was 20,000 μM. After four hours of shaking, the samples were centrifuged for 10 minutes at 3,000 RPM before injecting 0.2 μL on the same Agilent 1260 LC-MS system to obtain the peak area.

[3] = test system: IL-2 stimulated pSTAT5 in Tall-1 T cells; experiment: Inhibition of IL-2 Stimulated pSTAT5 in Tall-1 T Cells; assay type: cell-based; details: Tall-1 human T cell line, IL-2 300 ng/mL, AlphaLisa
In short: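 Cells preincubated with compound 1 hour at 37° C, then stimulated with IL-2 (final 300 ng/mL) for 30 minutes. After lysis, pSTAT5 (Tyr694/699) read by AlphaLISA luminescence. IC50 from inhibition curves, reported as pIC50 (mean±SD).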

JAK1 = JAK1 (Homo sapiens (Human), UniProt P23458); experiment: Biochemical JAK and Tyk2 Kinase Assays (LanthaScreen), JAK1; details: 25 μM ATP (Km); pIC50 converted to pKi by Cheng-Prusoff
JAK2 = JAK2 (Homo sapiens (Human), UniProt O60674); experiment: Biochemical JAK and Tyk2 Kinase Assays (LanthaScreen), JAK2; details: 3 μM ATP (Km); pIC50 converted to pKi by Cheng-Prusoff
Experimental: (§1) Assay 1: Biochemical JAK and Tyk2 Kinase Assays
(§2) A panel of four LanthaScreen JAK biochemical assays (JAK1, 2, 3 and Tyk2) were carried in a common kinase reaction buffer (50 mM HEPES, pH 7.5, 0.01% Brij-35, 10 mM MgCl2, and 1 mM EGTA). Recombinant GST-tagged JAK enzymes and a GFP-tagged STAT1 peptide substrate were obtained from Life Technologies.
(§3) Serially or discretely diluted compounds were pre-incubated with each of the four JAK enzymes and the substrate in white 384-well microplates (Corning) at ambient temperature for 1 h. ATP was subsequently added to initiate the kinase reactions in 10 μL total volume, with 1% DMSO. The final enzyme concentrations for JAK1, 2, 3 and Tyk2 are 4.2 nM, 0.1 nM, 1 nM, and 0.25 nM respectively; the corresponding Km ATP concentrations used are 25 μM, 3 μM, 1.6 μM, and 10 μM; while the substrate concentration is 200 nM for all four assays. Kinase reactions were allowed to proceed for 1 hour at ambient temperature before a 10 μL preparation of EDTA (10 mM final concentration) and Tb-anti-pSTAT1 (pTyr701) antibody (Life Technologies, 2 nM final concentration) in TR-FRET dilution buffer (Life Technologies) was added. The plates were allowed to incubate at ambient temperature for 1 h before being read on the EnVision reader (Perkin Elmer). Emission ratio signals (520 nm/495 nm) were recorded and utilized to calculate the percent inhibition values based on DMSO and background controls.
(§4) For dose-response analysis, percent inhibition data were plotted vs. compound concentrations, and IC50 values were determined from a 4-parameter robust fit model with the Prism software (GraphPad Software). Results were expressed as pIC50 (negative logarithm of IC50) and subsequently converted to pKi (negative logarithm of dissociation constant, Ki) using the Cheng-Prusoff equation.

Tyk2 = Tyk2 (Homo sapiens (Human), UniProt P29597); experiment: Biochemical JAK and Tyk2 Kinase Assays (LanthaScreen), Tyk2; details: 10 μM ATP (Km); pIC50 converted to pKi by Cheng-Prusoff
Experimental: as §1, §2, §3, §4

JAK1, sequence (P23458 whole entry): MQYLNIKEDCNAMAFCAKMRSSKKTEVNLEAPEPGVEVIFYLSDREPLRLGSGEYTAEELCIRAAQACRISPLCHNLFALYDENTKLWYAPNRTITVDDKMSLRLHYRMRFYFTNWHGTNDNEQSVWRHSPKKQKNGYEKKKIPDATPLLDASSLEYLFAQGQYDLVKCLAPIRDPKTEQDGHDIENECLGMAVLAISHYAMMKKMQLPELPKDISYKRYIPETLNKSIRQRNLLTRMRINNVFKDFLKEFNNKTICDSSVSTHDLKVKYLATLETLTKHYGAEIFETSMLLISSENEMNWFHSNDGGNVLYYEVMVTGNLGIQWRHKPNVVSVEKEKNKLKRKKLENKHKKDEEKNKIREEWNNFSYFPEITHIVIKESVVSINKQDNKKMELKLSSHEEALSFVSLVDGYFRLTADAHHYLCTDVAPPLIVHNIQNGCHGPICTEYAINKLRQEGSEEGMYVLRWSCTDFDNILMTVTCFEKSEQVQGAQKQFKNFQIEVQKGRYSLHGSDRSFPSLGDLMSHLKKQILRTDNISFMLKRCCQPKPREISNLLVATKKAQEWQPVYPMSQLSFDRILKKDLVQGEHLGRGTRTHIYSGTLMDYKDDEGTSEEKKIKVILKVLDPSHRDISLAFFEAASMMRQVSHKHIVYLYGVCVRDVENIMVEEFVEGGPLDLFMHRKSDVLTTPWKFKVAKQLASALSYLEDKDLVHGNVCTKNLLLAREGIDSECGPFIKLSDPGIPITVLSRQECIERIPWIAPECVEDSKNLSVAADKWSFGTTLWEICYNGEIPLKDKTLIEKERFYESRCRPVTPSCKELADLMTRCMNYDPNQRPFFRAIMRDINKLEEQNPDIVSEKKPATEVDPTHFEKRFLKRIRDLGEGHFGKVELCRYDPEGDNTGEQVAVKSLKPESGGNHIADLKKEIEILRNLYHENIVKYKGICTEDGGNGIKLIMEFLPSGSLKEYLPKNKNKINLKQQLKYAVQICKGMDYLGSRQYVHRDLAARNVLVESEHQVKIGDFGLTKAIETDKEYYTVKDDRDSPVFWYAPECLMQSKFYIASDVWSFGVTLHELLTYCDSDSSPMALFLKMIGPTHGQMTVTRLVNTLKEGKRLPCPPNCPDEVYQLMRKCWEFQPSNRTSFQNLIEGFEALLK
JAK3, sequence (P52333 whole entry): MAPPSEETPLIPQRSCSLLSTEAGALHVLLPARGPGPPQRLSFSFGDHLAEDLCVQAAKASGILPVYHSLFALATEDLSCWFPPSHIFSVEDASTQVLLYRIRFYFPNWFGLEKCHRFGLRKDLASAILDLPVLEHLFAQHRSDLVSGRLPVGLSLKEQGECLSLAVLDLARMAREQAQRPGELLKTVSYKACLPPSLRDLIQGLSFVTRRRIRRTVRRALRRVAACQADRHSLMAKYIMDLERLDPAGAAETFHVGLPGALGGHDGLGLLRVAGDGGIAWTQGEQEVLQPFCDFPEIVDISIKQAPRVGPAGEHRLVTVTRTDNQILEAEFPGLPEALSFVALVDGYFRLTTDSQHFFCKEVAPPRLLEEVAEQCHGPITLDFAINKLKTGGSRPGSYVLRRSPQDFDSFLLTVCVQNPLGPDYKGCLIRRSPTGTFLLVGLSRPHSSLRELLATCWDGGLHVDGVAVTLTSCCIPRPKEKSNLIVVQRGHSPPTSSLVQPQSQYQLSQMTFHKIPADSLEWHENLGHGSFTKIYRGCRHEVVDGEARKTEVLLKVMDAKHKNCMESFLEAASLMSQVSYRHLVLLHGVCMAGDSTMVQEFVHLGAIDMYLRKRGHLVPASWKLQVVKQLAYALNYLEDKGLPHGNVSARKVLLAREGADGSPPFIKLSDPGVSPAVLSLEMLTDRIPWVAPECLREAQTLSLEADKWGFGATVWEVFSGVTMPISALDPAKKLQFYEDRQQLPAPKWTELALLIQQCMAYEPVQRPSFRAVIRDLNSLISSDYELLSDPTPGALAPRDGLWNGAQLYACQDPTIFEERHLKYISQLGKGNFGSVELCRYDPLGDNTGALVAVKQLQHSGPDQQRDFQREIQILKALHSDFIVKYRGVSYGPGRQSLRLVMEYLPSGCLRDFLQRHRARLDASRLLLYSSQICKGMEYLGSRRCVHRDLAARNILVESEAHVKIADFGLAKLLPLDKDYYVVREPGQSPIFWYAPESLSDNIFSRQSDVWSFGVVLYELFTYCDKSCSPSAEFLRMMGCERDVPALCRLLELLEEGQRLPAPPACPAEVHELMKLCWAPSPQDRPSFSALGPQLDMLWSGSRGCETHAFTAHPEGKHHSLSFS
JAK2, sequence (O60674 whole entry): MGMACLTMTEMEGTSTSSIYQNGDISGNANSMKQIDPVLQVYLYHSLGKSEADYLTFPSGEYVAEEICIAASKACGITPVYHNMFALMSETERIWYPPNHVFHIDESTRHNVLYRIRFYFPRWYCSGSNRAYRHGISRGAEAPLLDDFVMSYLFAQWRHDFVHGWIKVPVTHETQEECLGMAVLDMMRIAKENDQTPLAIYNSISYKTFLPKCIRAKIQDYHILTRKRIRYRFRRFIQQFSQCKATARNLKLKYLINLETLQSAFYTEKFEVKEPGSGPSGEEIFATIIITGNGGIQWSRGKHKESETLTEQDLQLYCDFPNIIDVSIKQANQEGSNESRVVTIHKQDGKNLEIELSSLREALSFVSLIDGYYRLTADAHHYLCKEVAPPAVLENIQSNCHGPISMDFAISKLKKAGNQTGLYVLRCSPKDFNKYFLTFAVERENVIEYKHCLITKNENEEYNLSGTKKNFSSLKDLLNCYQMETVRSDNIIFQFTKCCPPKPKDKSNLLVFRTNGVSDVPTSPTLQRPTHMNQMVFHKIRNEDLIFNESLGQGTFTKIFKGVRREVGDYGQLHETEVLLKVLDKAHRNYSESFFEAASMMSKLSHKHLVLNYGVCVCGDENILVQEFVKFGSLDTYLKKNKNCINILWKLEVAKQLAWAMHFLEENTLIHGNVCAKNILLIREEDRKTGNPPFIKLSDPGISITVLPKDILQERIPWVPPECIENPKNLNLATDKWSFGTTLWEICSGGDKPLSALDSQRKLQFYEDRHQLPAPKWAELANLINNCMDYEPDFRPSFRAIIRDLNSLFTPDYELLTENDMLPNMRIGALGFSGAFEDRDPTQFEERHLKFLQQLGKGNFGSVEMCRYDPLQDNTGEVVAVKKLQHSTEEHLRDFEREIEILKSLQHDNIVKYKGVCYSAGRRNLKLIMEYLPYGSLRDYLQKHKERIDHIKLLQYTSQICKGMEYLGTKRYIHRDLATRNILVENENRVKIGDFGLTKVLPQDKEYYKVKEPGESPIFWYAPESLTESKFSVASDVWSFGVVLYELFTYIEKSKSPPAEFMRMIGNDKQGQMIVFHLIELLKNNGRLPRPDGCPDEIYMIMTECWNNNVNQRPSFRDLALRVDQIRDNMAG
Tyk2, sequence (P29597 whole entry): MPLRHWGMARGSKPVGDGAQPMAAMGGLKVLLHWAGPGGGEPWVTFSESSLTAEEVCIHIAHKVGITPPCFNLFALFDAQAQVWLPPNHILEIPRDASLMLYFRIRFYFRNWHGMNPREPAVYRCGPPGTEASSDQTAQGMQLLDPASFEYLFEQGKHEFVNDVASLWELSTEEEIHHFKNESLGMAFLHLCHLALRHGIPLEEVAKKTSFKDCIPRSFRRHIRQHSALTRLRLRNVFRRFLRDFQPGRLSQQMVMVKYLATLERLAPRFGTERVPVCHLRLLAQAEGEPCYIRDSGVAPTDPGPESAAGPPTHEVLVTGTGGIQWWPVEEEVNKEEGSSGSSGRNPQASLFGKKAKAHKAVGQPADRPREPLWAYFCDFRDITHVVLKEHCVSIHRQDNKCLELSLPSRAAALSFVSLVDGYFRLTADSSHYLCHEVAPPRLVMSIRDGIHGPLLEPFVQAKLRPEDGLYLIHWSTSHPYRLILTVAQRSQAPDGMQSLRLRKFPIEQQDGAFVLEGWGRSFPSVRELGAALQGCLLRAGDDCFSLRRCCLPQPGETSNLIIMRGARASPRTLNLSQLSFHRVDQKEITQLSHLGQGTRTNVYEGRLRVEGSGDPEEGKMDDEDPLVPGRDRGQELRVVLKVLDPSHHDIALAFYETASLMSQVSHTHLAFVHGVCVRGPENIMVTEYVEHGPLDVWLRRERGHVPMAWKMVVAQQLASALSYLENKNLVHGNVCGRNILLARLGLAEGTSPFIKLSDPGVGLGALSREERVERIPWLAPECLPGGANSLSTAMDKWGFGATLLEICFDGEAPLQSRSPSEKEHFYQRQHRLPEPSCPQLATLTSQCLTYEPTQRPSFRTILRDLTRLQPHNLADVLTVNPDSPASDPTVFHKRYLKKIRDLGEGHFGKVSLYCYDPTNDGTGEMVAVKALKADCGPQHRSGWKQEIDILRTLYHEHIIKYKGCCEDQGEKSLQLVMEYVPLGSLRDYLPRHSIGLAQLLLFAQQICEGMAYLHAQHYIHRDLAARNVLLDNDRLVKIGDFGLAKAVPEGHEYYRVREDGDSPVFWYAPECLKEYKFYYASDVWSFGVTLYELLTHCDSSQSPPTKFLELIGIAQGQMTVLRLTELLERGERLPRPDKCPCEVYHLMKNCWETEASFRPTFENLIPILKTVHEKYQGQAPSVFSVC

| SMILES | Solubility at PH 7.4 (μmol) (Aqueous Solubility Assay) | Cacoverap Kp 10^−6 cm/sec (Caco-2 cell monolayer) | Caco Kp 10^−6 cm/sec (Caco-2 cell monolayer) | HLM Clin μL/min/mg [1] | JAK 3 (pKi) (JAK3) | Solubility in PEG400 (mg/mL) ([2]; PEG400) | Solubility in Diisopropyl adipate (mg/mL) ([2]; diisopropyl adipate) | Solubility in MCT (mg/mL) ([2]; medium chain triglycerides (MCT)) | Solubility in Propylene glycol (mg/mL) ([2]; propylene glycol) | Tall-1 IL2 pSTAT5 (pIC50) [3] | JAK 1 (pKi) (JAK1) | JAK 2 (pKi) (JAK2) | Tyk 2 (pKi) (Tyk2) |
| --- | --- | --- | --- | --- | --- | --- | --- | --- | --- | --- | --- | --- | --- |
| CCS(=O)(=O)N1[C@@H]2CCC[C@H]1C[C@H](N(C)c1nc(Nc3cc(C)[nH]n3)cc(C3CCOC3)n1)C2 (stereo partly drawn) [Compound 5, N^2-((1R,3s,5S)-9-(ethylsulfonyl)-9-azabicyclo[3.3.1]nonan-3-yl)-N2-methyl-N4-(5-methyl-1H-pyrazol-3-yl)-6-(tetrahydrofuran-3-yl)pyrimidine-2,4-diamine] | E (E represents a value below 10) | A (A represents a value above 35×10^−6 cm/sec) | A (A represents a value above 30×10^−6 cm/sec) | A (A represents a Clint value between 1250 and 3000) | B (B represents a pKi value between 9 and 10 (Ki between 1 nM and 0.1 nM)) | A (A represents a value above 10) | B (B represents a value between 5 and 10) | C (C represents a value below 5) | A (A represents a value above 10) | A (A represents a pIC50 value ≥8.0) | A (A represents a pKi value ≥10 (Ki≤0.1 nM)) | – | – |
| CCS(=O)(=O)N1[C@@H]2CCC[C@H]1C[C@H](N(C)c1nc(Nc3cc(C)[nH]n3)cc([C@H]3CCCO3)n1)C2 [Compound 9] | C (C represents a value between 50 and 250) | A (A represents a value above 35×10^−6 cm/sec) | A (A represents a value above 30×10^−6 cm/sec) | A (A represents a Clint value between 1250 and 3000) | B (B represents a pKi value between 9 and 10 (Ki between 1 nM and 0.1 nM)) | – | – | – | – | A (A represents a pIC50 value ≥8.0) | A (A represents a pKi value ≥10 (Ki≤0.1 nM)) | A (A represents a pKi value ≥10 (Ki≤0.1 nM)) | A (A represents a pKi value ≥10 (Ki≤0.1 nM)) |
| CCS(=O)(=O)N1[C@@H]2CCC[C@H]1C[C@H](N(C)c1nc(Nc3cc(C)[nH]n3)cc([C@@H]3CCCO3)n1)C2 [Compound 10] | C (C represents a value between 50 and 250) | A (A represents a value above 35×10^−6 cm/sec) | A (A represents a value above 30×10^−6 cm/sec) | A (A represents a Clint value between 1250 and 3000) | B (B represents a pKi value between 9 and 10 (Ki between 1 nM and 0.1 nM)) | – | – | – | – | A (A represents a pIC50 value ≥8.0) | A (A represents a pKi value ≥10 (Ki≤0.1 nM)) | A (A represents a pKi value ≥10 (Ki≤0.1 nM)) | A (A represents a pKi value ≥10 (Ki≤0.1 nM)) |
